Tested on: Keratinocytes
Assay: Keratinocyte DNA fragmentation and cell yield after UV irradiation with NGF
Assay type: cell-based, human
Protocol: Keratinocytes were plated in 60 mm diameter tissue culture dishes in MCDB153 supplemented with epidermal growth factor (0.1 ng/ml human recombinant), insulin (5 microg/ml), hydrocortisone (0.5 microg/ml, calcium (0.15 mM), bovine pituitary extract (BPE), (2 ml per 500 ml medium), gentamicin (50 microg/ml), and amphotericin-B (50 ng/ml) (karetinocyte basal medium). Preconfluent cells were irradiated in phosphate buffered saline PBS) using a 1 KW xenon arc solar simulator (XMN 1000-21, Optical Radiation Corp., Azuza, Calif.) with 15 or 25 mJ/cm^2 UV through the petri dish plastic cover as described in Example 7. After UV irradiation, cells were maintained in their basal medium 3 days and processed as indicated. Sham irradiated control cultures were handled identically but placed under a dark cloth adjacent to the UV beam.
Cells were washed with cold PBS and disrupted in lysis buffer pH8 (10 mM tris, 150 mM NaCl, 0.1 mM EDTA, 1% SDS, 200 µg/ml proteinase K). After 15 hour incubation at […], samples were extracted twice with phenol plus chloroform (1:1, V/V) and precipitated overnight with ethanol (2.5×volume) and 3 M sodium acetate (1/10×volume). The DNA was then digested with DNAse free ribonuclease (10 microg/ml) for one hour at 37C, separated on 1% agarose gel and stained with ethidium bromide.
Keratinocytes were UV-irradiated as in Example 9. After irradiation cells were placed in fresh keratinocyte medium containing 50 ng/ml NGF or diluent alone. DNA fragmentation was determined as in Example 9. […] The standard (STD) is 100 bp DNA ladder (Gibco/BRL). […] UV irradiated keratinocytes were growth arrested as expected.

NGF: nerve growth factor, neurotrophin ligand of p75 NGF-R and trk
DNA fragmentation of UV irradiated keratinocytes (50 ng/ml NGF): not fragmented | Increase in keratinocyte cell yields (NGF supplemented medium, within 5 days): 40% | Decrease in keratinocyte cell yield (UV irradiated, 50 ng/ml NGF, within 24 hours, diluent 50%): 30%

Reference: US6867179B1, “Methods of inducing hair growth and coloration” (Trustees of Boston University, priority 1994, dated 2005)
